In general, melting point refers to the temperature, or range, at which the solid turns liquid.

Data on 36 molecules can be found in patent US6989389B2, “Aryl ether substituted imidazoquinolines” (3M Innovative Properties Co., priority 2000, dated 2006).

Structures can show the parent of a compound that is named as a salt. Where two headings read alike, the source gives them in different places.

In series [1] the test system is Peripheral blood mononuclear cells (PBMC). Nature of the series: Cytokine Induction in Human Cells (in vitro human blood cell system, IFN and TNF secreted into culture media). The series is classed as cell-based. Details: key to Lowest Effective Concentration (μM) Tumor Necrosis Factor / Lowest Effective Concentration (μM) Interferon: *: no induction was seen at any of the tested concentrations. Conditions: 18 to 24 hours, tested 30-0.014 μM; for minimal effective concentration: Homo sapiens, PBMC. The source says:
An in vitro human blood cell system is used to assess cytokine induction. Activity is based on the measurement of interferon and tumor necrosis factor (α) (IFN and TNF, respectively) secreted into culture media as described by Testerman et. al. In “Cytokine Induction by the Immunomodulators Imiquimod and S-27609”, Journal of Leukocyte Biology, 58, 365-372 (September, 1995).
Whole blood from healthy human donors is collected by venipuncture into EDTA vacutainer tubes. Peripheral blood mononuclear cells (PBMC) are separated from whole blood by density gradient centrifugation using Histopaque®-1077. Blood is diluted 1:1 with Dulbecco's Phosphate Buffered Saline (DPBS) or Hank's Balanced Salts Solution (HBSS). The PBMC layer is collected and washed twice with DPBS or HBSS and resuspended at 4×10^6 cells/mL in RPMI complete. The PBMC suspension is added to 48 well flat bottom sterile tissue culture plates (Costar, Cambridge, Mass. or Becton Dickinson Labware, Lincoln Park, N.J.) containing an equal volume of RPMI complete media containing test compound.
The compounds are solubilized in dimethyl sulfoxide (DMSO). The DMSO concentration should not exceed a final concentration of 1% for addition to the culture wells. The compounds are generally tested at concentrations ranging from 30-0.014 μM.
The solution of test compound is added at 60 μM to the first well containing RPMI complete and serial 3 fold dilutions are made in the wells. The PBMC suspension is then added to the wells in an equal volume, bringing the test compound concentrations to the desired range (30-0.014 μM). The final concentration of PBMC suspension is 2×10^6 cells/mL. The plates are covered with sterile plastic lids, mixed gently and then incubated for 18 to 24 hours at 37° C. in a 5% carbon dioxide atmosphere.
Following incubation the plates are centrifuged for 10 minutes at 1000 rpm (˜200×g) at 4° C. The cell-free culture supernatant is removed with a sterile polypropylene pipet and transferred to sterile polypropylene tubes. Samples are maintained at −30 to −70° C. until analysis. The samples are analyzed for interferon (α) by ELISA and for tumor necrosis factor (α) by ELISA or IGEN Assay.
Interferon (α) concentration is determined by ELISA using a Human Multi-Species kit from PBL Biomedical Laboratories, New Brunswick, N.J. Results are expressed in pg/mL.
Tumor necrosis factor (α) (TNF) concentration is determined using ELISA kits available from Biosource International, Camarillo, Calif. Alternately, the TNF concentration can be determined by Origen® M-Series Immunoassay and read on an IGEN M-8 analyzer from IGEN International, Gaithersburg, Md. The immunoassay uses a human TNF capture and detection antibody pair from Biosource International, Camarillo, Calif. Results are expressed in pg/mL.
The table below lists the lowest concentration found to induce interferon and the lowest concentration found to induce tumor necrosis factor for each compound.

Setting [2] is: lowest concentration found to induce interferon (α), ELISA, read-out: Lowest Effective Concentration (μM) Interferon.
[3] abbreviates: lowest concentration found to induce tumor necrosis factor (α), ELISA or IGEN assay.
The mark [4] stands for this setting: lowest concentration found to induce tumor necrosis factor (α), ELISA or IGEN assay, read-out: Lowest Effective Concentration (μM) Tumor Necrosis Factor.
The mark [5] stands for this setting: lowest concentration found to induce interferon (α), ELISA.

In turn, `Nc1nc2ccccc2c2c1ncn2CCOCCCc1cccc(C(=O)O)c1` (as salt: trifluoroacetate) [Example 12, 3-{3-[2-(4-Amino-1H-imidazo[4,5-c]quinolin-1-yl)ethoxy]propyl}benzoic acid bis(trifluoroacetate)] yielded a melting point of 138 to 140 °C. Regarding `Nc1nc2ccccc2c2c1ncn2CCOCCCc1ccccc1C(=O)O` (as salt: trifluoroacetate) [Example 13, 2-{3-[2-(4-Amino-1H-imidazo[4,5-c]quinolin-1-yl)ethoxy]propyl}benzoic acid trifluoroacetate], the melting point was in the range of 186 to 188 °C.

As for `CC(COCc1ccc(C(F)(F)F)cc1)n1cnc2c(N)nc3ccccc3c21` (stereo not shown) [Example 74], the minimal effective concentration in series [1] (setting [2]) turned out to be 0.37 µM. Further, the “Lowest Effective Concentration (μM) Tumor Necrosis Factor” value in series [1] (setting [3]) is reported as “*”. For `CC(C)C(COc1ccc([N+](=O)[O-])cc1)n1cnc2c(N)nc3ccccc3c21` (stereo not shown) [Example 58], in series [1] (setting [2]), the minimal effective concentration amounted to 3.33 µM. In series [1] (setting [3]), the “Lowest Effective Concentration (μM) Tumor Necrosis Factor” value is recorded as “*”. The like results for `CCCCc1nc2c(N)nc3c(c2n1CCOCc1ccc(C(C)(C)C)cc1)CCCC3` [Example 95] were, in that order, 1.11 µM and “*”.

As for `CCC(COc1ccc(-n2ccnc2)cc1)n1cnc2c(N)nc3ccccc3c21` (stereo not shown) [Example 101], the minimal effective concentration in series [1] (setting [2]) was 0.04 µM; in series [1] (setting [4]) it was 10 µM.

In the case of `CC(C)(Cn1cnc2c(N)nc3ccccc3c21)OCc1cccc(Cl)c1` [Example 35], the “Lowest Effective Concentration (μM) Interferon” value in series [1] (setting [5]) is reported as “*”. For the same molecule, the “Lowest Effective Concentration (μM) Tumor Necrosis Factor” value in series [1] (setting [3]) is “*”. Take `CCCCc1nc2c(N)nc3c(c2n1CCOCc1ccc(C)cc1)CCCC3` [Example 90]: the figures for the minimal effective concentration in series [1] (setting [2]) and in series [1] (setting [4]) were 0.12 µM and 10 µM, respectively.

With `CC(C)(Cn1cnc2c(N)nc3ccccc3c21)OCc1ccc(Cl)cc1` [Example 34], the “Lowest Effective Concentration (μM) Interferon” value in series [1] (setting [5]) was “*”. For the same molecule, the “Lowest Effective Concentration (μM) Tumor Necrosis Factor” value in series [1] (setting [3]) is listed as “*”. Take `CC(Cn1cnc2c(N)nc3ccccc3c21)OCc1ccc(Cl)c(Cl)c1` (stereo not shown) [Example 53]: in series [1] (setting [2]), the minimal effective concentration stood at 1.11 µM. In addition, in series [1] (setting [3]), the “Lowest Effective Concentration (μM) Tumor Necrosis Factor” value is recorded as “*”. `CC(C)(Cn1cnc2c(N)nc3ccccc3c21)OCc1ccccc1` [Example 33]: the “Lowest Effective Concentration (μM) Interferon” value in series [1] (setting [5]) is recorded as “*”. In series [1] (setting [3]), the “Lowest Effective Concentration (μM) Tumor Necrosis Factor” value is given as “*”.

In the case of `CCC(COCc1ccccc1)n1c(C)nc2c(N)nc3ccccc3c21` (stereo not shown) [Example 81], the minimal effective concentration in series [1] (setting [2]) came to 1.11 µM. Besides, the “Lowest Effective Concentration (μM) Tumor Necrosis Factor” value in series [1] (setting [3]) is on record as “*”. As to `Nc1nc2ccccc2c2c1ncn2CCOCc1ccccc1` [Example 42], the minimal effective concentration in series [1] (setting [2]) came to 0.37 µM. The “Lowest Effective Concentration (μM) Tumor Necrosis Factor” value in series [1] (setting [3]) is listed as “*”. Regarding `CCC(COCc1cccc(OC(F)(F)F)c1)n1cnc2c(N)nc3ccccc3c21` (stereo not shown) [Example 45], the minimal effective concentration in series [1] (setting [2]) stood at 0.37 µM. Also, in series [1] (setting [3]), the “Lowest Effective Concentration (μM) Tumor Necrosis Factor” value was “*”. Regarding `Nc1nc2ccccc2c2c1ncn2CCOCCCc1ccc(-n2cccc2)cc1` [Example 11, 1-(2-{3-[4-(1H-1-Pyrrolyl)phenyl]propoxy}ethyl)-1H-imidazo[4,5-c]quinolin-4-amine trifluoroacetate], the minimal effective concentration in series [1] (setting [2]) was found to be 1.11 µM. The “Lowest Effective Concentration (μM) Tumor Necrosis Factor” value in series [1] (setting [3]) is recorded as “*”. For the molecule `CC(Cn1cnc2c(N)nc3ccccc3c21)Oc1ccc(-n2ccnc2)cc1` (stereo not shown) [Example 98], in series [1] (setting [2]), the minimal effective concentration is 0.37 µM. For the same molecule, the “Lowest Effective Concentration (μM) Tumor Necrosis Factor” value in series [1] (setting [3]) is “*”. On the same counts, the results for `CCC(COCc1ccc(OC(F)(F)F)cc1)n1cnc2c(N)nc3ccccc3c21` (stereo not shown) [Example 48] are 0.12 µM and “*”. `CC(Cn1cnc2c(N)nc3ccccc3c21)Oc1ccccc1C#N` (stereo not shown) [Example 97]: the minimal effective concentration in series [1] (setting [2]) was 1.11 µM. Further, the “Lowest Effective Concentration (μM) Tumor Necrosis Factor” value in series [1] (setting [3]) was “*”. As to `CC(Cn1cnc2c(N)nc3ccccc3c21)OCc1cccc2ccccc12` (stereo not shown) [Example 69], in series [1] (setting [2]), the minimal effective concentration came to 1.11 µM. Further, the “Lowest Effective Concentration (μM) Tumor Necrosis Factor” value in series [1] (setting [3]) is “*”. `CC(n1cnc2c(N)nc3ccccc3c21)C(C)(C)OCc1ccccc1` (stereo not shown) [Example 80]: the “Lowest Effective Concentration (μM) Interferon” value in series [1] (setting [5]) is given as “*”. Also, in series [1] (setting [3]), the “Lowest Effective Concentration (μM) Tumor Necrosis Factor” value is given as “*”. As to `COc1ccc(OC(C)Cn2cnc3c(N)nc4ccccc4c32)cc1` (stereo not shown) [Example 99], in series [1] (setting [2]), the minimal effective concentration was found to be 0.37 µM. In series [1] (setting [3]), the “Lowest Effective Concentration (μM) Tumor Necrosis Factor” value was “*”. In the case of `CC(Cn1cnc2c(N)nc3ccccc3c21)OCc1ccc(Cl)cc1` (stereo not shown) [Example 52], the minimal effective concentration in series [1] (setting [2]) worked out at 1.11 µM. Further, the “Lowest Effective Concentration (μM) Tumor Necrosis Factor” value in series [1] (setting [3]) was “*”. `CC(Cn1cnc2c(N)nc3ccccc3c21)Oc1ccc([N+](=O)[O-])cc1` (stereo not shown) [Example 54]: the minimal effective concentration in series [1] (setting [2]) stood at 0.12 µM. For the same molecule, in series [1] (setting [3]), the “Lowest Effective Concentration (μM) Tumor Necrosis Factor” value was “*”. In the case of `CCC(COc1ccc(C(C)(C)CC(C)(C)C)cc1)n1cnc2c(N)nc3ccccc3c21` (stereo not shown) [Example 103], the minimal effective concentration in series [1] (setting [4]) was found to be 10 µM. In addition, the “Lowest Effective Concentration (μM) Interferon” value in series [1] (setting [5]) was “*”. As to `Nc1nc2ccccc2c2c1ncn2COCCOc1ccc([N+](=O)[O-])cc1` [Example 83], the minimal effective concentration in series [1] (setting [2]) is 0.37 µM. In series [1] (setting [3]), the “Lowest Effective Concentration (μM) Tumor Necrosis Factor” value is listed as “*”. For `Nc1nc2ccccc2c2c1ncn2CCOCCCc1ccc(C(=O)O)cc1` [Example 14, 4-{3-[2-(4-Amino-1H-imidazo[4,5-c]quinolin-1-yl)ethoxy]propyl}benzoic acid trifluoroacetate], the minimal effective concentration in series [1] (setting [2]) and in series [1] (setting [4]) was 10 µM each time. For `CCC(COCc1cccc(C)c1)n1cnc2c(N)nc3ccccc3c21` (stereo not shown) [Example 25], in series [1] (setting [2]), the minimal effective concentration turned out to be 0.12 µM. In addition, the “Lowest Effective Concentration (μM) Tumor Necrosis Factor” value in series [1] (setting [3]) is “*”. In the case of `Nc1nc2ccccc2c2c1ncn2CC(OCc1ccc(Cl)cc1)c1ccccc1` (stereo not shown) [Example 29], in series [1] (setting [5]), the “Lowest Effective Concentration (μM) Interferon” value is given as “*”. Further, the “Lowest Effective Concentration (μM) Tumor Necrosis Factor” value in series [1] (setting [3]) is “*”. In the case of `CC(C)C(COCc1cccc(Cl)c1)n1cnc2c(N)nc3ccccc3c21` (stereo not shown) [Example 61], the minimal effective concentration in series [1] (setting [2]) came to 3.33 µM. Also, the “Lowest Effective Concentration (μM) Tumor Necrosis Factor” value in series [1] (setting [3]) is “*”.

With `C[C@@H](COCc1cccc(Cl)c1)Cn1cnc2c(N)nc3ccccc3c21` [Example 112], the “Lowest Effective Concentration (μM) Interferon” value in series [1] (setting [5]) is given as “*”. Moreover, the “Lowest Effective Concentration (μM) Tumor Necrosis Factor” value in series [1] (setting [3]) was “*”.

With `CCC(COCc1ccccc1)n1cnc2c(N)nc3ccccc3c21` (stereo not shown) [Example 24], the minimal effective concentration in series [1] (setting [2]) amounted to 0.12 µM. Also, the “Lowest Effective Concentration (μM) Tumor Necrosis Factor” value in series [1] (setting [3]) is on record as “*”. For `CC(COCc1ccc(Cl)cc1)n1cnc2c(N)nc3ccccc3c21` (stereo not shown) [Example 73], the minimal effective concentration in series [1] (setting [2]) came out at 1.11 µM. Also, the “Lowest Effective Concentration (μM) Tumor Necrosis Factor” value in series [1] (setting [3]) was “*”. On the same counts, the results for `CCC(COCc1ccccc1Cl)n1cnc2c(N)nc3ccccc3c21` (stereo not shown) [Example 40] are 0.12 µM and “*”. Take `Cc1cccc(COC(C)(C)Cn2cnc3c(N)nc4ccccc4c32)c1` [Example 37]: the “Lowest Effective Concentration (μM) Interferon” value in series [1] (setting [5]) is on record as “*”. For the same molecule, the “Lowest Effective Concentration (μM) Tumor Necrosis Factor” value in series [1] (setting [3]) is “*”. As for `CCC(COc1ccc(NC(C)=O)cc1)n1cnc2c(N)nc3ccccc3c21` (stereo not shown) [Example 104], the minimal effective concentration came out at 0.12 µM in series [1] (setting [2]) and 10 µM in series [1] (setting [4]).

`CCC(COCc1ccc(Br)cc1)n1cnc2c(N)nc3ccccc3c21` (stereo not shown) [Example 27]: the minimal effective concentration in series [1] (setting [2]) is 0.12 µM. In addition, the “Lowest Effective Concentration (μM) Tumor Necrosis Factor” value in series [1] (setting [3]) is reported as “*”.
